Like-named read-outs stand apart in the source and are kept apart here.
Target: T1, human CB2R (Homo sapiens, UniProt P34972)
T1 construct: host or cells: CHO cells
Assay: CB2R mediated modulation of cAMP synthesis
Assay type: cell-based
Settings: for Emax: 0.5 h, read-out: Agonist Efficacy (%); for agonistic activity: found through the use of the described assays (CB2 agonists), qualitative statement
Procedure, shortened: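 CHO cells expressing human CB2R treated with compound 30 min at 37 °C in buffer with 1 mM IBMX, 0.25% BSA and 10 uM forskolin. cAMP measured after lysis by DiscoverX-XS kit.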

[1] = CHO cells expressing human CB2R, cAMP inhibited by 1 uM CP55940 defined as 100%

T1 sequence (P34972 whole entry): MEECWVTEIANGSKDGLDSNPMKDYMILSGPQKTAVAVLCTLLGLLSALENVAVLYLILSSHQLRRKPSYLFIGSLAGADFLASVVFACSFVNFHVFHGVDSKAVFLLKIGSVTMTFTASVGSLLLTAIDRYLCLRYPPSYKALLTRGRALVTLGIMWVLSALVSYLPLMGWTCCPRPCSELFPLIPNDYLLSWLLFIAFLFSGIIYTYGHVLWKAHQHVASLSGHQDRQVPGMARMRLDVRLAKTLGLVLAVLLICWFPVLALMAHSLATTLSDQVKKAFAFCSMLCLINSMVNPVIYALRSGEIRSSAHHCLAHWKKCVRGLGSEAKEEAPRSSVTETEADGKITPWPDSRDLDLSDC

agonistic activity | Structure (SMILES) | further results
– | O=C(Nc1ccc(C(F)(F)F)cc1)N1CCCN(C(=O)C2CCC(F)(F)CC2)CC1 [Compound 78, 4-(4,4-Difluoro-cyclohexanecarbonyl)-[1,4]diazepane-1-carboxylic acid (4-trifluoromethyl-phenyl)-amide] | Emax [1]: 87%; EC50 (read-out: hCB2 cAMP EC50): 71 nM
– | CC(C)c1ccc(NC(=O)N2CCCN(C(=O)c3ccc(Cl)cc3)CC2)cc1 [Compound 41, 4-(4-Chloro-benzoyl)-[1,4]diazepane-1-carboxylic acid (4-isopropyl-phenyl)-amide] | Emax [1]: 95%; EC50 (read-out: hCB2 cAMP EC50): 43 nM
agonistic activity | CC(C)(C)c1cc(NC(=O)N2CCCN(C(=O)C3CCC(F)(F)CC3)CC2)on1 [4-(4,4-Difluoro-cyclohexanecarbonyl)-[1,4]diazepane-1-carboxylic acid (3-tert-butyl-isoxazol-5-yl)-amide] | –
agonistic activity | O=C(Nc1ccc(C(F)(F)F)cc1)N1CCCN(C(=O)C2CCCCC2)CC1 [4-Cyclohexanecarbonyl-[1,4]diazepane-1-carboxylic acid (4-trifluoromethyl-phenyl)-amide] | –
agonistic activity | O=C(Nc1ccc(SC(F)(F)F)cc1)N1CCCN(C(=O)C2CCOCC2)CC1 [4-(Tetrahydro-pyran-4-carbonyl)-[1,4]diazepane-1-carboxylic acid (4-trifluoromethylsulfanyl-phenyl)-amide] | –
agonistic activity | COc1ccc(C(=O)N2CCCN(C(=O)Nc3ccc4ccccc4c3)CC2)cc1 [4-(4-Methoxy-benzoyl)-[1,4]diazepane-1-carboxylic acid naphthalen-2-ylamide] | –
agonistic activity | CCc1ccc(NC(=O)N2CCCN(C(=O)C3CCCCC3)CC2)cc1 [4-Cyclohexanecarbonyl-[1,4]diazepane-1-carboxylic acid (4-ethyl-phenyl)-amide] | –
agonistic activity | CC1(O)CCC(C(=O)N2CCCN(C(=O)Nc3cc(C(C)(C)C)on3)CC2)CC1 (stereo not shown) [4-(4-Hydroxy-4-methyl-cyclohexanecarbonyl)-[1,4]diazepane-1-carboxylic acid (5-tert-butyl-isoxazol-3-yl)-amide] | –
agonistic activity | O=C(CN1CCCCC1)N1CCCN(C(=O)Nc2ccc3ccccc3c2)CC1 [4-(2-Piperidin-1-yl-acetyl)-[1,4]diazepane-1-carboxylic acid naphthalen-2-ylamide] | –
agonistic activity | O=C(Nc1ccc2ccccc2c1)N1CCCN(C(=O)c2ccc(C(F)(F)F)cc2)CC1 [4-(4-Trifluoromethyl-benzoyl)-[1,4]diazepane-1-carboxylic acid naphthalen-2-ylamide] | –
– | CC(C)(C)c1cc(NC(=O)N2CCCN(C(=O)N3CCS(=O)(=O)CC3)CC2)on1 [Compound 211, 4-(1,1-Dioxo-1 λ^6-thiomorpholine-4-carbonyl)-[1,4]diazepane-1-carboxylic acid (3-tert-butyl-isoxazol-5-yl)-amide] | Emax [1]: 100%; EC50 (read-out: hCB2 cAMP EC50): 95 nM
– | CC(C)(C)c1cc(NC(=O)N2CCCN(C(=O)NC3CCCC3)CC2)no1 [Compound 217, [1,4]Diazepane-1,4-dicarboxylic acid 1-[(5-tert-butyl-isoxazol-3-yl)-amide] 4-cyclopentylamide] | EC50: 32 nM; Emax (CHO): 100%
agonistic activity | CC(C)c1ccc(NC(=O)N2CCCN(C(=O)C(C)(C)C)CC2)cc1 [4-pivaloyl-[1,4]diazepane-1-carboxylic acid (4-isopropyl-phenyl)-amide] | –
– | O=C(Nc1ccc2ccccc2c1)N1CCCN(C(=O)c2ccc(Cl)c(Cl)c2)CC1 [Compound 86, 4-(3,4-Dichloro-benzoyl)-[1,4]diazepane-1-carboxylic acid naphthalen-2-ylamide] | Emax [1]: 92%; EC50 (read-out: hCB2 cAMP EC50): 52 nM
agonistic activity | CC(C)c1ccc(NC(=O)N2CCCN(C(=O)CCC3CC3)CC2)cc1 [4-(3-Cyclopropyl-propionyl)-[1,4]diazepane-1-carboxylic acid (4-isopropyl-phenyl)-amide] | –
agonistic activity | O=C(Nc1ccc(C(F)(F)F)cc1)N1CCCN(C(=O)c2ccc(Cl)cc2)CC1 [4-(4-Chloro-benzoyl)-[1,4]diazepane-1-carboxylic acid (4-trifluoromethyl-phenyl)-amide] | –
– | CC(C)(C)c1cc(NC(=O)N2CCCN(C(=O)C3CCC(=O)CC3)CC2)no1 [Compound 234, 4-(4-Oxo-cyclohexanecarbonyl)-[1,4]diazepane-1-carboxylic acid (5-tert-butyl-isoxazol-3-yl)-amide] | EC50: 33 nM; Emax (CHO): 100%

agonistic activity | Structure (SMILES) | further results
– | CC(C)c1ccc(NC(=O)N2CCCN(C(=O)C3CCCCC3)CC2)cc1 [Compound 34, 4-Cyclohexanecarbonyl-[1,4]diazepane-1-carboxylic acid (4-isopropyl-phenyl)-amide] | Emax [1]: 102%; EC50 (read-out: hCB2 cAMP EC50): 23 nM
agonistic activity | O=C(Nc1ccc(C(F)(F)F)cc1)N1CCCN(C(=O)C2CCOCC2)CC1 [4-(Tetrahydro-pyran-4-carbonyl)-[1,4]diazepane-1-carboxylic acid (4-trifluoromethyl-phenyl)-amide] | –
– | CCCCc1ccc(NC(=O)N2CCCN(C(=O)CC3CCCC3)CC2)cc1 [Example 11] | Emax [1]: 65%; EC50 (read-out: hCB2 cAMP EC50): 74 nM
agonistic activity | CCCCCc1ccc(NC(=O)N2CCCN(C(=O)CC3CCOCC3)CC2)cc1 [4-(2-Tetrahydro-pyran-4-yl-acetyl)-[1,4]diazepane-1-carboxylic acid (4-pentyl-phenyl)-amide] | –
agonistic activity | CC(C)(C)c1cc(NC(=O)N2CCCN(C(=O)C3CCCN(S(C)(=O)=O)C3)CC2)no1 (stereo not shown) [4-(1-Methanesulfonyl-piperidine-3-carbonyl)-[1,4]diazepane-1-carboxylic acid (5-tert-butyl-isoxazol-3-yl)-amide] | –
agonistic activity | CC(C)(C)CC(=O)N1CCCN(C(=O)Nc2ccc(C(C)(C)C)cc2)CC1 [4-(3,3-Dimethyl-butyryl)-[1,4]diazepane-1-carboxylic acid (4-tert-butyl-phenyl)-amide] | –
agonistic activity | CC(C)(C)c1csc(NC(=O)N2CCCN(C(=O)C3CCOCC3)CC2)n1 [4-(Tetrahydro-pyran-4-carbonyl)-[1,4]diazepane-1-carboxylic acid (4-tert-butyl-thiazol-2-yl)-amide] | –
agonistic activity | O=C(Nc1ccc2ccccc2c1)N1CCCN(C(=O)C2CCCC2)CC1 [4-Cyclopentanecarbonyl-[1,4]diazepane-1-carboxylic acid naphthalen-2-ylamide] | –
– | CC(C)(C)c1cc(NC(=O)N2CCCN(C(=O)C3CCC(F)(F)CC3)CC2)no1 [Compound 144, 4-(4,4-Difluoro-cyclohexanecarbonyl)-[1,4]diazepane-1-carboxylic acid (5-tert-butyl-isoxazol-3-yl)-amide] | EC50: 1.3 nM; Emax (CHO): 98%
agonistic activity | O=C(Nc1cc(-c2ccccc2)no1)N1CCCN(C(=O)N2CCOCC2)CC1 [4-(Morpholine-4-carbonyl)-[1,4]diazepane-1-carboxylic acid (3-phenyl-isoxazol-5-yl)-amide] | –
agonistic activity | CC(C)CCC(=O)N1CCCN(C(=O)Nc2ccc3ccccc3c2)CC1 [4-(4-Methyl-pentanoyl)-[1,4]diazepane-1-carboxylic acid naphthalen-2-ylamide] | –
agonistic activity | C[C@@H]1CN(C(=O)N2CCCN(C(=O)Nc3cc(C(C)(C)C)on3)CC2)C[C@H](C)O1 [4-((2R,6S)-2,6-Dimethyl-morpholine-4-carbonyl)-[1,4]diazepane-1-carboxylic acid (5-tert-butyl-isoxazol-3-yl)-amide] | –
– | O=C(Nc1ccc2ccccc2c1)N1CCCN(C(=O)c2ccc(Cl)cc2Cl)CC1 [Compound 99, 4-(2,4-Dichloro-benzoyl)-[1,4]diazepane-1-carboxylic acid naphthalen-2-ylamide] | Emax [1]: 102%; EC50 (read-out: hCB2 cAMP EC50): 100 nM
agonistic activity | CC(C)(C)c1cc(NC(=O)N2CCCN(C(=O)N3CCOCC3)CC2)on1 [4-(Morpholine-4-carbonyl)-[1,4]diazepane-1-carboxylic acid (3-tert-butyl-isoxazol-5-yl)-amide] | –
agonistic activity | CCc1ccc(NC(=O)N2CCCN(C(=O)CC3CCCCC3)CC2)cc1 [4-(2-Cyclohexyl-acetyl)-[1,4]diazepane-1-carboxylic acid (4-ethyl-phenyl)-amide] | –
agonistic activity | O=C(CCC1CCCCC1)N1CCCN(C(=O)Nc2ccc3ccccc3c2)CC1 [4-(3-Cyclohexyl-propionyl)-[1,4]diazepane-1-carboxylic acid naphthalen-2-ylamide] | –
– | CCC(C)c1ccc(NC(=O)N2CCCN(C(=O)C3CCOCC3)CC2)nc1 (stereo not shown) [Compound 196, 4-(Tetrahydro-pyran-4-carbonyl)-[1,4]diazepane-1-carboxylic acid (5-sec-butyl-pyridin-2-yl)-amide] | Emax [1]: 77%; EC50 (read-out: hCB2 cAMP EC50): 47 nM

Structure (SMILES) | agonistic activity | further results
O=C(Nc1nc(-c2ccccc2)cs1)N1CCCN(C(=O)C2CCC(O)CC2)CC1 (stereo not shown) [4-(4-Hydroxy-cyclohexanecarbonyl)-[1,4]diazepane-1-carboxylic acid (4-phenyl-thiazol-2-yl)-amide] | agonistic activity | –
O=C(Nc1nc(-c2ccccc2)cs1)N1CCCN(C(=O)C2CCOCC2)CC1 [4-(Tetrahydro-pyran-4-carbonyl)-[1,4]diazepane-1-carboxylic acid (4-phenyl-thiazol-2-yl)-amide] | agonistic activity | –
CC(C)(C)c1cc(NC(=O)N2CCCN(C(=O)C3CCC(F)(F)CC3)CC2)no1 [4-(4,4-Difluoro-cyclohexanecarbonyl)-[1,4]diazepane-1-carboxylic acid (5-tert-butyl-isoxazol-3-yl)-amide] | agonistic activity | –
CC(C)(C)c1cc(NC(=O)N2CCCN(C(=O)NC3CCCC3)CC2)no1 | agonistic activity | –

Source: patent US8173638B2 (Boehringer Ingelheim International GmbH, priority 2006, dated 2012)
